{"source": "paper PMC4770093", "about": "“The role of kinetic context in apparent biased agonism at GPCRs” (Nature Communications, 2016)", "key": {"[1]": {"target": "T1, D2LR (Homo sapiens, UniProt P14416)", "T1 sequence (P14416 whole entry)": "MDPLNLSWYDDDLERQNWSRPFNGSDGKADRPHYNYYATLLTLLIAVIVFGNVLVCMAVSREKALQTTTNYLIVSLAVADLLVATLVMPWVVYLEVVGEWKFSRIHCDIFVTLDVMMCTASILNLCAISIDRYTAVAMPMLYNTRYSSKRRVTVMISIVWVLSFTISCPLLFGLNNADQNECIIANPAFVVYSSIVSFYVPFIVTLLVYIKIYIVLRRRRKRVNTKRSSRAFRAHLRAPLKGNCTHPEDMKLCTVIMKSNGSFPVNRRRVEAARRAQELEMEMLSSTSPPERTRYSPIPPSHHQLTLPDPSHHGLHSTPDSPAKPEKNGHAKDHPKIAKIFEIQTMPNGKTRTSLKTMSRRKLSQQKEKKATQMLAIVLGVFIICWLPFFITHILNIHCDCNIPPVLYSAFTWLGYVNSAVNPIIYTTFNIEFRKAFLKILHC", "assay": "biochemical", "experimental": "The cells were harvested in PBS containing 2 mM EDTA and centrifuged at 300 g for 3 min. The resulting pellet was resuspended in ice-cold assay buffer (20 mM HEPES, 100 mM NaCl, 6 mM MgCl2, 1 mM EGTA and 1 mM EDTA pH 7.4) and the centrifugation step was repeated. The intact cell pellet was then resuspended in assay buffer and homogenized using a Polytron homogenizer. After centrifugation (1,000 g, 10 min), the pellet was discarded and the supernatant was recentrifuged at 30,000 g for 1 h at 4 °C using a Sorvall Evolution RC ultracentrifuge (Thermo Scientific). The resulting pellet was resuspended in assay buffer and stored in 250 μl aliquots at −80 °C. Membrane protein concentration was determined using the method of Bradford.\nAll radioligand binding experiments were conducted at 37 °C in a 1-ml reaction volume in assay buffer (20 mM HEPES, 100 mM NaCl, 6 mM MgCl2, 1 mM EGTA and 1 mM EDTA pH 7.4) containing 100 μM GppNHp and 0.1% ascorbic acid. In all cases, nonspecific binding was determined in the presence of 10 μM haloperidol. […] Filter-bound radioactivity was measured by scintillation spectrometry after the addition of 3.5 ml of Ultima Gold (PerkinElmer) using a Tri-Carb 2900TR liquid scintillation counter (PerkinElmer).\nwhere Y denotes the percentage-specific binding, Top and Bottom denote the maximal and minimal asymptotes, respectively, IC50 denotes the X-value when the response is midway between Bottom and Top, and nH denotes the Hill slope factor. IC50 values obtained from the inhibition curves were converted to Ki values using the Cheng and Prusoff equation[61]."}, "[2]": {"target": "T1, D2LR", "assay": "ERK1/2 phosphorylation assay (Alphascreen SureFire)", "format": "cell-based", "design": "expressed in transfected cells", "settings": "for alpahscreen assay to detect pERK1/2, counts: agonist 10 μM (cariprazine 1 μM), single experiments n=1 to n=4", "procedure": "ERK1/2 phosphorylation was measured using the Alphascreen SureFire ERK kit (PerkinElmer, Waltham, USA). Cells were seeded into 96-well plates at a density of 50,000 cells per well. After 5–7 h, cells were washed with PBS and incubated in serum-free DMEM overnight before assaying. Dose–response experiments were performed for each ligand at 37 °C in the presence of 0.1% ascorbic acid. […] The plate was shaken for 5 min at room temperature (RT) before transferring 5 μl of the lysates to a white 384-well Proxiplate (PerkinElmer, Waltham, USA). […] Plates were read using a Fusion-TM plate reader (PerkinElmer, Waltham, USA)."}, "[3]": {"target": "T1, D2LR", "assay": "β-Arrestin-2 recruitment (BRET)", "format": "cell-based", "design": "expressed in transfected cells", "procedure": "β-Arrestin-2 recruitment. […] To assess β-arrestin-2 recruitment to the D2LR, the cells were transfected with 1 μg Rluc8-tagged D2LR, 4 μg YFP–β-arrestin-2 and 2 μg GRK2. […] The cells were incubated with Coelenterazine (Promega) at a final concentration of 5 μM for 5 min, followed by stimulation with the agonists for an additional 5 min before the BRET readings were captured."}, "[4]": {"target": "T1, D2LR", "assay": "GαoB G protein activation (BRET);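 further: Flp-In-CHO cells stably expressing D2LR, transiently transfected, agonist-stimulated in HBSS at 37 °C, net BRET read after coelenterazine, vehicle control subtracted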", "format": "cell-based", "design": "expressed in transfected cells", "settings": "for Emax: relative to the maximal response of ropinirole", "experimental": "G protein activation. Flp-In-CHO cells stably expressing the D2LR were seeded at a density of 2,000,000 cells per 10-cm dish and were transfected the following day using polyethylenimine as the transfection reagent. […] Twenty-four hours after transfection, the cells were plated into 96-well CulturPlates (PerkinElmer) and grown overnight. The cells were equilibrated in Hank's balanced salt solution at 37 °C before starting the experiment. The cells were stimulated with the agonists for the indicated timeframes when the BRET readings were captured. Coelenterazine (Promega) was added at a final concentration of 5 μM at least 3 min before measurement. […] Net BRET was determined by subtraction of the vehicle control from the agonist-induced response."}, "[5]": {"target": "T1, D2LR", "assay": "xCELLigence cellular impedance (CI) assay", "format": "cell-based", "design": "expressed in transfected cells", "settings": "for Emax: relative to the maximal response of ropinirole", "procedure": "Changes in CI on ligand stimulation were measured using the xCELLigence system (Roche Applied Science). The baseline cell index of each well of a 96-well E-plate was measured in the presence of growth medium before cell seeding. Cells were seeded at a density of 20,000 cells per well and grown for 16–20 h followed by 4 h serum starvation. Cells were treated with the ligands and the cell index values were obtained immediately after ligand stimulation every 15 s for a total time of 90 min. The retrieved cell index values were then normalized by dividing the cell index at the time of ligand addition followed by subtraction of the vehicle control at each time point."}, "[6]": {"target": "T1, D2LR", "assay": "Quantification of biased agonism between pathways (operational model, LogBias)", "format": "cell-based", "design": "expressed in transfected cells", "excerpt": "where Top and Bottom represent the maximal and minimal asymptote of the dose–response curve, [A] is the molar concentration of agonist and EC50 is the molar concentration of agonist required to give a response half way between bottom and top. Dose–response data were fitted to the following form of the operational model of agonism[12] to allow the quantification of biased agonism\nwhere Em is the maximal possible response of the system, Basal is the basal level of response, KA represents the equilibrium dissociation constant of the agonist (A) and τ is an index of the signalling efficacy of the agonist that is defined as RT/KE, where RT is the total number of receptors and KE is the coupling efficiency of each agonist-occupied receptor, and n is the slope of the transducer function that links occupancy to response. The analysis assumes that the transduction machinery used for a given cellular pathway are the same for all agonists, such that the Em and transducer slope (n) are shared between agonists. Data for all compounds for each pathway were fit globally, to determine values of KA and τ. Biased agonism was quantified as previously described. […] The relative bias can then be calculated for each agonist at the two different signalling pathways by subtracting the Δlog(τ/KA) of one pathway from the other to give a ΔΔlog(τ/KA) value, which is a measure of bias. […] All affinity (pKi or pKA), potency (pEC50) and transduction ratio (log(τ/KA)) parameters were estimated as logarithms. When fold changes in bias are described, this was calculated by converting values of ΔΔlog(τ/KA) to the corresponding antilog value. […] Thus, as the application of t-tests and analyses of variance assume Gaussian distribution, estimating the parameters as logarithms allows valid statistical comparison. All results are expressed as the mean±s.e.m. As such, we performed a Brown–Forsythe test (Graphpad prism 6) to assure ourselves of equal variance when such parameters are compared."}, "[7]": {"settings": "5 minute timepoint, dopamine as reference agonist"}}, "note": "“And” between values parts separate entries of the source, which are not always exact repeats. Equal entries are not always repeated."}
{"smiles": "CCCN(CCC)CCc1cccc2c1CC(=O)N2", "note": "[Ropinirole, ropinirole]", "values": [{"measurement": "Ki", "setting": "[1]", "value": 2.51, "unit": "µM"}, {"measurement": "Log(τ/KA) pERK1/2", "setting": "[2]; 5 minute timepoint, Flp-In-CHO-D2LR", "value": "8.44 ± 0.05"}, {"measurement": "ΔLog(τ/KA) pERK1/2", "setting": "[2]; [7]", "value": "-0.12 ± 0.07"}, {"measurement": "alpahscreen assay to detect pERK1/2, counts", "setting": "[2]; time 5 mins", "value": "22.2889 counts and 25.6765 counts and 28.0112 counts"}, {"measurement": "alpahscreen assay to detect pERK1/2, counts", "setting": "[2]; time 7.5 mins", "value": "28.0112 counts and 22.6774 counts and 25.7734 counts"}, {"measurement": "alpahscreen assay to detect pERK1/2, counts", "setting": "[2]; time 10 mins", "value": "21.5421 counts and 16.2572 counts and 11.748 counts and 11.8417 counts"}, {"measurement": "alpahscreen assay to detect pERK1/2, counts", "setting": "[2]; time 20 mins", "value": "4.739 counts and 4.229 counts and 3.491 counts and 4.291 counts"}, {"measurement": "alpahscreen assay to detect pERK1/2, counts", "setting": "[2]; time 30 mins", "value": "2.723 counts and 2.242 counts and 2.289 counts and 2.713 counts"}, {"measurement": "Log(τ/KA) β-arrestin2", "setting": "[3]", "value": "6.48 ± 0.15"}, {"measurement": "ΔLog(τ/KA) β-arrestin2", "setting": "[3]", "value": "0.14 ± 0.20"}, {"measurement": "Log(τ/KA) GαoB activation", "setting": "[4]", "value": "7.08 ± 0.08"}, {"measurement": "pEC50 Gao", "setting": "[4]", "value": 7.33}, {"measurement": "ΔLog(τ/KA) GαoB activation", "setting": "[4]", "value": "-0.16 ± 0.11"}, {"measurement": "EC50", "setting": "[4]; 2 min", "value": 0.107, "unit": "µM"}, {"measurement": "Emax", "setting": "[4]; 2 min", "value": 100, "unit": "%"}, {"measurement": "EC50", "setting": "[4]; 5 min", "value": 0.0955, "unit": "µM"}, {"measurement": "Emax", "setting": "[4]; 5 min", "value": 100, "unit": "%"}, {"measurement": "EC50", "setting": "[4]; 10 min", "value": 0.0676, "unit": "µM"}, {"measurement": "Emax", "setting": "[4]; 10 min", "value": 100, "unit": "%"}, {"measurement": "Emax", "setting": "[4]; 15 min", "value": 100, "unit": "%"}, {"measurement": "EC50", "setting": "[4]; 30 min", "value": 0.0309, "unit": "µM"}, {"measurement": "Emax", "setting": "[4]; 30 min", "value": 100, "unit": "%"}, {"measurement": "EC50", "setting": "[4]; 45 min", "value": 0.0417, "unit": "µM"}, {"measurement": "Emax", "setting": "[4]; 45 min", "value": 100, "unit": "%"}, {"measurement": "EC50", "setting": "[4]; 60 min", "value": 0.0513, "unit": "µM"}, {"measurement": "Emax", "setting": "[4]; 60 min", "value": 100, "unit": "%"}, {"measurement": "EC50", "setting": "[4]; 75 min", "value": 0.0398, "unit": "µM"}, {"measurement": "Emax", "setting": "[4]; 75 min", "value": 100, "unit": "%"}, {"measurement": "EC50", "setting": "[4]; 90 min", "value": 0.0437, "unit": "µM"}, {"measurement": "Emax", "setting": "[4]; 90 min", "value": 100, "unit": "%"}, {"measurement": "change in potency over time in the GαoB activation assay", "setting": "[4]; time points from 2 to 90 min", "value": "no change in potency"}, {"measurement": "Log(τ/KA) Cellular impedance", "setting": "[5]", "value": "8.32 ± 0.05"}, {"measurement": "ΔLog(τ/KA) Cellular impedance", "setting": "[5]", "value": "-0.23 ± 0.06"}, {"measurement": "EC50", "setting": "[5]; 2 min", "value": 0.00468, "unit": "µM"}, {"measurement": "Emax", "setting": "[5]; 2 min", "value": 100, "unit": "%"}, {"measurement": "EC50", "setting": "[5]; 5 min", "value": 0.00513, "unit": "µM"}, {"measurement": "Emax", "setting": "[5]; 5 min", "value": 100, "unit": "%"}, {"measurement": "EC50", "setting": "[5]; 10 min", "value": 0.00794, "unit": "µM"}, {"measurement": "Emax", "setting": "[5]; 10 min", "value": 100, "unit": "%"}, {"measurement": "EC50", "setting": "[5]; 15 min", "value": 0.0107, "unit": "µM"}, {"measurement": "Emax", "setting": "[5]; 15 min", "value": 100, "unit": "%"}, {"measurement": "EC50", "setting": "[5]; 30 min", "value": 0.017, "unit": "µM"}, {"measurement": "Emax", "setting": "[5]; 30 min", "value": 100, "unit": "%"}, {"measurement": "EC50", "setting": "[5]; 45 min", "value": 0.0195, "unit": "µM"}, {"measurement": "Emax", "setting": "[5]; 45 min", "value": 100, "unit": "%"}, {"measurement": "EC50", "setting": "[5]; 60 min", "value": 0.024, "unit": "µM"}, {"measurement": "Emax", "setting": "[5]; 60 min", "value": 100, "unit": "%"}, {"measurement": "EC50", "setting": "[5]; 75 min", "value": 0.0282, "unit": "µM"}, {"measurement": "Emax", "setting": "[5]; 75 min", "value": 100, "unit": "%"}, {"measurement": "EC50", "setting": "[5]; 90 min", "value": 0.0347, "unit": "µM"}, {"measurement": "Emax", "setting": "[5]; 90 min", "value": 100, "unit": "%"}, {"measurement": "LogBias CI – pERK1/2", "setting": "[6]", "value": "-0.11 ± 0.10"}, {"measurement": "LogBias Gαi1 – pERK1/2", "setting": "[6]", "value": "-0.31 ± 0.15"}, {"measurement": "LogBias GαoB – pERK1/2", "setting": "[6]", "value": "-0.04 ± 0.14"}, {"measurement": "LogBias cAMP – pERK1/2", "setting": "[6]", "value": "-0.27 ± 0.10"}, {"measurement": "LogBias β-arr2 – pERK1/2", "setting": "[6]", "value": "0.26 ± 0.21"}, {"measurement": "LogBias Gαi1 – CI", "setting": "[6]; [7]", "value": "-0.19 ± 0.15"}, {"measurement": "LogBias Gαi1 – GαoB", "setting": "[6]; [7]", "value": "-0.26 ± 0.18"}, {"measurement": "LogBias Gαi1 – cAMP", "setting": "[6]; [7]", "value": "-0.03 ± 0.15"}, {"measurement": "LogBias GαoB – CI", "setting": "[6]; [7]", "value": "0.07 ± 0.13"}, {"measurement": "LogBias GαoB – cAMP", "setting": "[6]; [7]", "value": "0.23 ± 0.13"}, {"measurement": "LogBias cAMP – CI", "setting": "[6]; [7]", "value": "-0.16 ± 0.09"}, {"measurement": "LogBias β-arr2 – CI", "setting": "[6]; [7]", "value": "0.38 ± 0.21"}, {"measurement": "LogBias β-arr2 – Gαi1", "setting": "[6]; [7]", "value": "0.57 ± 0.24"}, {"measurement": "LogBias β-arr2 – GαoB", "setting": "[6]; [7]", "value": "0.31 ± 0.23"}, {"measurement": "LogBias β-arr2 – cAMP", "setting": "[6]; [7]", "value": "0.54 ± 0.21"}]}
